This experiment can be described thus: Evaluation of taste (bitter, sour, sweet) by panellists, orange juice with and without added 4-hydroxyflavanone. Format: in vivo. The source says:
Masking the perception of sour and the bitterness in orange juice, which was obtained from premature fruits and/or HLB infected fruits with at least 5 ppm limonin
A commercial orange juice was used for the experiments, which according to an analysis contains 7.8 ppm limonin and was regularly evaluated as too bitter from the panellists. The panellists (n=6) thereby evaluate the 3 attributes “sweet”, “bitter” and “sour” on an unstructured scale of 0 (no taste) to 10 (strong taste). In one sample, the panellists received the orange juice alone, in a further sample, they received the orange juice which was supplemented with an amount of 4-hydroxyflavanone as listed in one of the tables. Thereby, the order was arbitrary and not known to the panellists before.

The mark [1] stands for this setting: 20 ppm in the examined orange juice.
Where [2] appears, read: 20 ppm racemic naringenin vs orange juice (7.8 ppm limonin) alone, Example 1.
Setting [3] is: orange juice containing 7.8 ppm limonin + 20 ppm racemic naringenin, scale 0-10, n=6 panellists, Example 1.
Setting [4] is: 30 ppm in the examined orange juice.
The mark [5] stands for this setting: 30 ppm racemic homoeriodictyol-sodium-salt vs orange juice (7.8 ppm limonin) alone, Example 4.
Where [6] appears, read: 50 ppm racemic homoeriodictyol-sodium-salt vs orange juice (7.8 ppm limonin) alone, Example 3.
[7] abbreviates: orange juice containing 7.8 ppm limonin + 30 ppm racemic homoeriodictyol-sodium-salt, scale 0-10, n=6 panellists, Example 4.
The mark [8] stands for this setting: orange juice containing 7.8 ppm limonin + 50 ppm racemic homoeriodictyol-sodium-salt, scale 0-10, n=6 panellists, Example 3.
The mark [9] stands for this setting: 10 ppm in the examined orange juice.
[10] abbreviates: 10 ppm racemic eriodictyol vs orange juice (7.8 ppm limonin) alone, Example 2.
Where [11] appears, read: B (10 ppm racemic eriodictyol) vs A (orange juice 7.8 ppm limonin alone), Example 5.
Where [12] appears, read: orange juice containing 7.8 ppm limonin + 10 ppm racemic eriodictyol, scale 0-10, n=6 panellists, Example 2.
The mark [13] stands for this setting: sample B: orange juice containing 7.8 ppm limonin + 10 ppm racemic eriodictyol, scale 0-10, Example 5.

Structures can show the parent of a compound that is named as a salt.

The text below walks through data of patent US10765134B2, “Foodstuff containing citrus products having added 4-hydroxyflavanones” (SYMRISE AG, priority 2015, dated 2020).

As for `O=C1C[C@@H](c2ccc(O)cc2)Oc2cc(O)cc(O)c21` (racemic) [racemic naringenin, naringenin], under setting [1], the “effect on bitter taste (in words)” value is “clear reduction”, the “effect on sour impression (in words)” value is listed as “decrease” and the “effect on sweet impression (in words)” value is “increase”. In addition, under setting [2], the “Relative change Bitter” value is listed as −31%, the “Relative change Sour” value was −25% and the “Relative change Sweet” value was “+30%”. The “Evaluation (0-10) Bitter” value (orange juice containing 7.8 ppm limonin + 20 ppm racemic naringenin, scale 0 (no taste) to 10 (strong taste), n=6 panellists, Example 1) was 3.4. Besides, under setting [3], the “Evaluation (0-10) Sour” value was 3.3 and the “Evaluation (0-10) Sweet” value is 5.2.
Consider `COc1cc([C@@H]2CC(=O)c3c(O)cc(O)cc3O2)ccc1O` (racemic) [racemic homoeriodictyol-sodium-salt, homoeriodictyol-sodium-salt], for which, under setting [4], the “effect on bitter taste (in words)” value is listed as “clear reduction”, the “effect on sour impression (in words)” value is “decreases” and the “effect on sweet taste (in words)” value is given as “does not influence”. For the same compound, under setting [5], the “Relative change Bitter” value was −27%, the “Relative change Sour” value is −12% and the “Relative change Sweet” value is “+3%”. For the same compound, the “effect on sour perception (in words)” value (50 ppm in the examined orange juice) is reported as “influenced more strongly”. Under setting [6], the “Relative change Bitter” value is −13%, the “Relative change Sour” value is reported as −23% and the “Relative change Sweet” value is “+24%”. In addition, under setting [7], the “Evaluation (0-10) Bitter” value is listed as 3.2, the “Evaluation (0-10) Sour” value was found to be 4.1 and the “Evaluation (0-10) Sweet” value is 4.8. Further, under setting [8], the “Evaluation (0-10) Bitter” value is 4.1, the “Evaluation (0-10) Sour” value was 3.3 and the “Evaluation (0-10) Sweet” value is 4.0.
`O=C1C[C@@H](c2ccc(O)c(O)c2)Oc2cc(O)cc(O)c21` (racemic) [racemic eriodictyol, eriodictyol]: under setting [9], the “effect on bitter taste (in words)” value was “strong reduction”, the “effect on sour perception (in words)” value is “decreased” and the “effect on sweet impression (in words)” value is listed as “increased”. Also, under setting [10], the “Relative change Bitter” value is reported as −32%, the “Relative change Sour” value was −20% and the “Relative change Sweet” value is given as “+28%”. In addition, under setting [11], the “Relative change A/B Bitter” value is reported as −21%, the “Relative change A/B Sour” value was −12% and the “Relative change A/B Sweet” value is “+40%”. Under setting [12], the “Evaluation (0-10) Bitter” value was determined as 3.2, the “Evaluation (0-10) Sour” value was found to be 4.4 and the “Evaluation (0-10) Sweet” value worked out at 5.1. Under setting [13], the “Evaluation (0-10) Bitter” value came out at 3.9, the “Evaluation (0-10) Sour” value is 4.4 and the “Evaluation (0-10) Sweet” value is on record as 4.2.
